Legend:
[1] = system: HEK293T soluble proteomes; assay: LC-MS chemical proteomics of probe-modified sites in cell proteomes; format: binding, human
Procedure: (§1) Proteomes were diluted to 2.3 mg/mL in PBS and sample aliquots (432 μL) were treated with sulfonyl-triazole or -fluoride probes at the indicated concentrations (5 μL, 100× stock in DMSO), mixed gently and incubated for 1 h at room temperature. Probe-modified proteomes were subjected to CuAAC conjugation to desthiobiotin-PEG3-azide (10 μL of 10 mM stock in DMSO; final concentration of 200 μM) using TCEP (10 μL of fresh 50 mM stock in water; 1 mM final concentration), TBTA ligand (33 μL of a 1.7 mM 4:1 t-butanol/DMSO stock, 100 μM final concentration), and CuSO4 (10 μL of 50 mM stock, 1 mM final concentration). Samples were mixed by vortexing and then incubated for 1 h at room temperature. Excess reagents were removed by chloroform-methanol extraction as previously described^51. Protein pellets were re-suspended in 500 μL of 6M urea/25 mM ammonium bicarbonate followed by DTT reduction and IAA alkylation as previously described^5. Excess reagents were removed by chloroform/methanol extraction as described above, and the protein pellet was re-suspended in 500 μL of 25 mM ammonium bicarbonate and then digested to peptides using trypsin/Lys-C (7.5 μg in 15 μL of ammonium bicarbonate, sequencing grade from Promega, Madison, Wisconsin, United States of America) was added to the mixture and incubated for 3 hrs at 37° C. Probe-modified peptides were enriched by avidin affinity chromatography, eluted, and prepared for LC-MS analysis as previously described^51.
A top 10 data-dependent acquisition MS method was used.
Sulfonyl-probe modifications of tyrosine, lysine, and other amino acids were included as a variable (common) modification of +635.27374 Da. […] A Byonic score of 300 was applied for a more inclusive initial evaluation of the search results and thereby consider more possible probe-modified sites. MS1 and MS2 spectra corresponding to the highest-scoring tyrosine- and lysine (internal or non-C terminal)-modified sequences (˜50-100 peptides) were manually verified. […] Distinct peptides containing probe-modified amino acid residues (termed sites) were determined by identifying all unique razor protein and site combinations across all of the proteomes tested.
To compare amino acid residues modified by sulfonyl probes, protein and peptide identifications were accomplished as described above with variable (common) modification of +635.27374 Da on the following amino acid residues: cysteine, aspartic acid, glutamic acid, histidine, lysine, methionine, asparagine, glutamine, arginine, serine, threonine, tryptophan, and tyrosine. For these amino acid comparisons, carbamidomethylation (+57.021464 Da) of cysteines was searched as a variable/common modification to allow for the potential of probe modification on cysteines. Comparisons of probe-modified sites across all probes and cell lines tested were performed using the R package ggplot2 (online at tidyverse.org). Venn diagrams for comparisons were generated using the VennDiagram R package^52.
Proteomes were digested with trypsin protease and desthiobiotin-modified peptides enriched by avidin affinity chromatography, released, and analyzed by high-resolution liquid chromatography-mass spectrometry (LC-MS). Probe-modified peptide-spectrum matches (PSMs) that met a quality control confidence criteria of ≥300 Byonic score^31 and ≤5 ppm mass accuracy were selected for further manual evaluation.

[2] = system: human cell proteomes (HEK293T, A549, DM93, H82, and Jurkat cells); assay: LC-MS chemical proteomics of probe-modified tyrosine sites across 5 cell proteomes; format: binding; details: HHS-465 and -475 together; 100 μM, 1 hr, 25° C.
Procedure: as §1, with “Probe-modified peptides were enriched by avidin affinity chromatography, eluted, and prepared for LC-MS analysis as previously described^51.” left out

## C#CCNC(=O)c1ccc(S(=O)(=O)n2cncn2)cc1 [HHS-475, 4-((1H-1,2,4-Triazol-1-yl)sulfonyl)-N-(prop-2-yn-1-yl)benzamide]
[1]; FIG. 4D
  unique-modified tyrosine sites among 1,2,4-SuTEx probes: 391 sites
[1]; LC-MS chemical proteomics, FIG. 4A
  tyrosine specificity, Y/K ratio of modified sites: 2.8
[2]
  tyrosine sites identified in aggregate across 5 cell proteomes: ~8,000 sites
